Measurements reported in US11098077B2, “Locked nucleic acid cyclic dinucleotide compounds and uses thereof” (CHINOOK THERAPEUTICS, INC., priority 2016, dated 2021).

Legend:
hSTING REF allele = molecular target: T1, hSTING REF allele (Homo sapiens, UniProt Q86WV6); experiment: Differential scanning fluorometry (DSF) binding to purified STING AA140-379, REF allele; settings: for hSTING Tm Shift REF: DSF, ligand 1 mM, 1 mg/ml STING AA140-379; for Tm shift compared with 2′3′-RR-(A)(A) and 2′3′-(G)(A): for the REF allele
T1 construct: DNA encoding amino acids 140-379 (amino acid numbering corresponding to Swiss Prot Q86WV6); 6xHIS (N, cleaved yes); SUMO (N, cleaved yes); made in house; host or cells: Rosetta2 (DE3) E. coli
T1 sequence (Q86WV6 140-379): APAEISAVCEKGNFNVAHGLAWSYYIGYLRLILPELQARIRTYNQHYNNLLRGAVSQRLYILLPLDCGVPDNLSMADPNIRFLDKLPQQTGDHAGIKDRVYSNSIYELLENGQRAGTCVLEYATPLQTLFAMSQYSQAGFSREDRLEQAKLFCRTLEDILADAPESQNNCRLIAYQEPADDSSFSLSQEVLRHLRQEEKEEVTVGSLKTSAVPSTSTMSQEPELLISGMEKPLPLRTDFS
Protocol: (§1) Cells were grown in lysogeny broth at 37° C. until a […] absorbance of 0.6 was reached. […] Cell pellets were re-suspended on ice in a buffer containing 50 mM Tris hydrochloride (Tris-HCl) pH 7.5, 500 mM sodium chloride (NaCl), 20 mM imidazole, 10% glycerol, 1 mM tris(2-carboxyethyl)phosphine hydrochloride (TCEP) and protease inhibitor tablet (Pierce) (Buffer A). Cells were lysed using an S-450D sonifier (Emmerson industrial) on ice. […] Protein was aliquoted, flash frozen in liquid nitrogen and stored at −80° C. until use.
(§2) The protein is heated in the presence of a dye that binds to and fluoresces in hydrophobic environments. The protein is thermally denatured by heating resulting in increased dye binding to the unfolded protein and fluorescence. The temperature midpoint (Tm) of a proteins denaturation is established by calculating the half maximal value of the denaturation curve. The temperature midpoint of the protein in the presence of a ligand is directly related to the affinity of the ligand for the protein and therefore its ability to stabilize the protein at higher temperatures.
(§3) Each of wild type hSTING, HAQ allele hSTING and REF allele hSTING were used with each of the reference compounds and compounds of the invention as listed in Table 4. Samples were placed in hard shell PCR plate (Bio-Rad). The fluorescence as a function of temperature was recorded in a CFX 96 real time PCR machine (Bio-Rad) reading on the HEX channel, excitation 450-490, emission 560-580 nm. The temperature gradient was from 15-80° C. ramping 0.5° C. per 15 seconds and recording every 0.5° C. After subtraction of the background signal from a sample lacking protein and ligand. The midpoint temperature (Tm) was calculated by fitting the curves of the fluorescence as a function of temperature to a Boltzmann sigmoidal function (Graph Pad Prism).

[1] = molecular target: T2, hSTING HAQ allele in THP1-Dual cells (Homo sapiens, UniProt Q86WV6, G230A/H232R/R293Q/R71H); experiment: THP1-Dual IRF-3 inducible secreted luciferase reporter assay (type I interferon activation), without digitonin; type: cell-based
T2 construct: a human monocyte cell line containing the hSTING HAQ allele; host or cells: THP1-Dual cells
T2 sequence (Q86WV6 whole entry R71H/G230A/H232R/R293Q): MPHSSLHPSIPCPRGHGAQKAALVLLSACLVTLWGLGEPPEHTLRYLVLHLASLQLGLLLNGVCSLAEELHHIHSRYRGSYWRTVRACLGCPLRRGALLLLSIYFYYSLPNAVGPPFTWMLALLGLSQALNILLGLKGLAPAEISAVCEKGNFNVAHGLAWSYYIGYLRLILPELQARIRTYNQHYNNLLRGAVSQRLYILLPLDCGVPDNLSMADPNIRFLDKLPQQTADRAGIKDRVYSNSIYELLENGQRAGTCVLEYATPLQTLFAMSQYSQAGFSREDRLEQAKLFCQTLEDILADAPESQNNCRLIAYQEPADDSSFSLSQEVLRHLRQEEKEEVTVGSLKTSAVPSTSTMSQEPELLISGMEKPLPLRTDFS
Protocol: After 30 minutes, cells were washed and fresh RPMI media containing 10% FBS was added, and cells were incubated at 37° C. with 5% CO2 Cell culture supernatants from each sample were collected after overnight incubation, and 10 μL of the cell culture supernatants was added to 50 μL QUANTI-Luc reagent (Invivogen). Type I interferon activation was determined by measuring secreted luciferase levels on a SpectraMax M3 spectrophotometer (Molecular Devices).

hSTING WT = molecular target: T3, hSTING WT (Homo sapiens, UniProt Q86WV6, H232R); experiment: Differential scanning fluorometry (DSF) binding to purified STING AA140-379, wild type; settings: for hSTING Tm Shift WT: DSF, ligand 1 mM, 1 mg/ml STING AA140-379
T3 construct: DNA encoding amino acids 140-379 (amino acid numbering corresponding to Swiss Prot Q86WV6); 6xHIS (N, cleaved yes); SUMO (N, cleaved yes); made in house; host or cells: Rosetta2 (DE3) E. coli
T3 sequence (Q86WV6 140-379 H232R limits assumed): as the sequence (Q86WV6 140-379) above, with H93R counted along it
Protocol: as §1, §2, §3

hSTING HAQ allele = molecular target: T4, hSTING HAQ allele (Homo sapiens, UniProt Q86WV6, G230A/H232R/R293Q); experiment: Differential scanning fluorometry (DSF) binding to purified STING AA140-379, HAQ allele; settings: ligand 1 mM, 1 mg/ml STING AA140-379
T4 construct: DNA encoding amino acids 140-379 (amino acid numbering corresponding to Swiss Prot Q86WV6); 6xHIS (N, cleaved yes); SUMO (N, cleaved yes); made in house; host or cells: Rosetta2 (DE3) E. coli
T4 sequence (Q86WV6 140-379 G230A/H232R/R293Q limits assumed): as the sequence (Q86WV6 140-379) above, with G91A, H93R, R154Q counted along it
Protocol: as §1, §2, §3

[2] = for all three alleles (WT, HAQ, REF)

SMILES	hSTING Tm Shift REF (hSTING REF allele) [°C]	Tm shift compared with 2′3′-RR-(A)(A) and 2′3′-(G)(A) (hSTING REF allele)	EC50 [1] [µM]	hSTING Tm Shift WT (hSTING WT) [°C]	Tm shift compared with reference compound 2′3′-RR-(A)(A) (hSTING WT; [2])	hSTING Tm Shift HAQ (hSTING HAQ allele) [°C]	Tm shift compared with natural ligand 2′3′-(G)(A) (hSTING WT; [2])
Nc1ncnc2c1ncn2[C@@H]1O[C@@H]2CO[P@@](=O)(S)O[C@H]3[C@H]4OC[C@]3(CO[P@@](=O)(S)O[C@@H]1[C@@H]2F)O[C@H]4n1cnc2c(N)ncnc21 [Compound 27a, dithio-(Rp,Rp)-cyclic-[3′F-A(2′,5′)p-2′O,4′C-LNA-A(3′,5′)p]]	10.2	greater Tm shift than both 2′3′-RR-(A)(A) and 2′3′-(G)(A)	10	11.8	comparable to or greater than that of the reference compound 2′3′-RR-(A)(A)	18.2	
CC(C)(C)[Si](C)(C)O[C@H]1[C@H]2O[P@](=O)(S)OC[C@@]34CO[C@@H]([C@H](n5cnc6c(N)ncnc65)O3)[C@@H]4O[P@@](=O)(S)OC[C@H]1O[C@H]2n1cnc2c(N)ncnc21 [Compound 11b, dithio-(Rp,Sp)-cyclic-[3′-OTBS-A(2′,5′)p-2′O,4′C-LNA-A(3′,5′)p]]	−1.5			−1.8		3.3	
Nc1ncnc2c1ncn2[C@@H]1O[C@@H]2CO[P@](=O)(S)O[C@H]3[C@H]4OC[C@]3(CO[P@@](=O)(S)O[C@@H]1[C@@H]2F)O[C@H]4n1cnc2c(N)ncnc21 [Compound 27b, dithio-(Rp,Sp)-cyclic-[3′F-A(2′,5′)p-2′O,4′C-LNA-A(3′,5′)p]]	7.1		81	8.2		13.2	
CC(C)(C)[Si](C)(C)O[C@H]1[C@H]2O[P@](=O)(S)OC[C@@]34CO[C@@H]([C@H](n5cnc6c(N)ncnc65)O3)[C@@H]4O[P@](=O)(S)OC[C@H]1O[C@H]2n1cnc2c(N)ncnc21 [Compound 11a, dithio-(Rp,Rp)-cyclic-[3′-OTBS-A(2′,5′)p-2′O,4′C-LNA-A(3′,5′)p]]	5.4			7.0		11.6	
Nc1nc2c(ncn2[C@@H]2O[C@@H]3CO[P@@](=O)(S)O[C@H]4[C@H]5OC[C@]4(CO[P@@](=O)(S)O[C@H]3[C@H]2O)O[C@H]5n2cnc3c(N)ncnc32)c(=O)[nH]1 [Compound 45a, 2-amino-9-((2R,3R,3aS,5R,7aR,9R,10R,10aS,12R,14aR)-2-(6-amino-9H-purin-9-yl)-10-hydroxy-5,12-dimercapto-5,12-dioxidohexahydro-2H,7H,14H-3,14a-(epoxymethano)difuro[3,2-d:3′,2′-j][1,3,7,9]tetraoxa[2,8]diphosphacyclododecin-9-yl)-1,9-dihydro-6H-purin-6-one]	13.1	greater Tm shift than both 2′3′-RR-(A)(A) and 2′3′-(G)(A)	5.8	20.3	comparable to or greater than that of the reference compound 2′3′-RR-(A)(A)	34.0	greater Tm shift than the natural ligand 2′3′-(G)(A)
O=C(Nc1ncnc2c1ncn2[C@@H]1O[C@@H]2CO[P@](=O)(S)O[C@H]3[C@H]4OC[C@]3(CO[P@@](=O)(S)O[C@@H]1[C@@H]2O)O[C@H]4n1cnc2c(NC(=O)c3ccccc3)ncnc21)c1ccccc1 [Compound 11e, dithio-(Rp,Sp)-cyclic-[3′-BzA(2′,5′)p-2′O,4′C-LNA-BzA(3′,5′)p]]	1.2			1.1		1.5	
Nc1ncnc2c1ncn2[C@@H]1O[C@@H]2CO[P@](=O)(S)O[C@H]3[C@H]4OC[C@]3(CO[P@@](=O)(S)O[C@@H]1[C@@H]2O)O[C@H]4n1cnc2c(N)ncnc21 [Compound 10b, dithio-(Rp,Sp)-cyclic-[A(2′,5′)p-2′O,4′C-LNA-A(3′,5′)p]]	7.4		110	8.7		13.9	
Nc1ncnc2c1ncn2[C@@H]1O[C@@H]2CO[P@@](=O)(S)O[C@H]3[C@H]4OC[C@]3(CO[P@@](=O)(S)O[C@@H]1[C@@H]2O)O[C@H]4n1cnc2c(N)ncnc21 [Compound 10a, dithio-(Rp,Rp)-cyclic-[A(2′,5′)p-2′O,4′C-LNA-A(3′,5′)p]]	7.5		24.3	10.4		16.1	
O=C(Nc1ncnc2c1ncn2[C@@H]1O[C@@]23CO[C@@H]1[C@@H]2O[P@](=O)(S)OC[C@@H]1C[C@@H](O[P@](=O)(S)OC3)[C@H](n2cnc3c(NC(=O)c4ccccc4)ncnc32)O1)c1ccccc1 [Compound 22a, dithio-(Rp,Rp)-cyclic-[3′H-BzA(2′,5′)p-2′O,4′C-LNA-BzA(3′,5′)p]]	0.6			0.6		2.2	
O=C(Nc1ncnc2c1ncn2[C@@H]1O[C@@]23CO[C@@H]1[C@@H]2O[P@](=O)(S)OC[C@@]12CO[C@@H]([C@H](n4cnc5c(NC(=O)c6ccccc6)ncnc54)O1)[C@@H]2O[P@](=O)(S)OC3)c1ccccc1 [Compound 4a]	4.4		341	4.3		5.6	
O=C(Nc1ncnc2c1ncn2[C@@H]1O[C@@H]2CO[P@@](=O)(S)O[C@H]3[C@H]4OC[C@]3(CO[P@@](=O)(S)O[C@@H]1[C@@H]2O)O[C@H]4n1cnc2c(NC(=O)c3ccccc3)ncnc21)c1ccccc1 [Compound 11d, dithio-(Rp,Rp)-cyclic-[3′-BzA(2′,5′)p-2′O,4′C-LNA-BzA(3′,5′)p]]	2.4			2.5		3.7	
O=C(Nc1ncnc2c1ncn2[C@@H]1O[C@@]23CO[C@@H]1[C@@H]2O[P@@](=O)(S)OC[C@@H]1C[C@@H](O[P@](=O)(S)OC3)[C@H](n2cnc3c(NC(=O)c4ccccc4)ncnc32)O1)c1ccccc1 [Compound 22b, dithio-(Rp,Sp)-cyclic-[3′H-BzA(2′,5′)p-2′O,4′C-LNA-BzA(3′,5′)p]]	4.6			4.6		5.9	
O=C(Nc1ncnc2c1ncn2[C@@H]1O[C@@H]2CO[P@@](=O)(S)O[C@H]3[C@H]4OC[C@]3(CO[P@](=O)(S)O[C@@H]1[C@@H]2O)O[C@H]4n1cnc2c(NC(=O)c3ccccc3)ncnc21)c1ccccc1 [Compound 11f, dithio-(Sp,Rp)-cyclic-[3′-BzA(2′,5′)p-2′O,4′C-LNA-BzA(3′,5′)p]]	6.5			6.6		7.5	
